Data set [1] is described as follows: Polydispersity index (PDI) by dynamic light scattering. Format: physicochemical. The note with it: RSV-F replicon RNA LNP, DLS; for PDI 1st IM: 1st immunization; for PDI 2nd IM: 2nd immunization. On the procedure:
Unless indicated otherwise, all PDIs referred to herein are the PDI of the fully formed nanoparticle, as measured by dynamic light scattering on a Malvern Zetasizer. The nanoparticle sample was diluted in phosphate buffered saline (PBS) so that the count rate was approximately 200-400 kcts. The data is presented in Table 3 as a weighted average of the intensity measure.
(§1) % entrapment (% E), Concentration of RNA (Conc), particle size measured by DLS, and polydispersity reported by DLS of LNPs prepared with different cationic lipids
(In general: A replicon is a self-replicating genome or part of one, used to study replication in cells.)

A short description of data set [2]: Particle size of the lipid nanoparticle (Z-average, dynamic light scattering, Malvern Zetasizer). Format: physicochemical. Conditions: RSV-F replicon RNA LNP, DLS; for Size 1st IM: 1st immunization; for Size 2nd IM: 2nd immunization.
Text: The lipid nanoparticles have a size of about 1 to about 2,500 nm, about 10 to about 1,500 nm, about 20 to about 1,000 nm, in a sub-embodiment about 50 to about 600 nm, in a sub-embodiment about 50 to about 400 nm, in a sub-embodiment about 50 to about 250 nm, and in a sub-embodiment about 50 to about 150 nm. Unless indicated otherwise, all sizes referred to herein are the average sizes (diameters) of the fully formed nanoparticle, as measured by dynamic light scattering on a Malvern Zetasizer. The nanoparticle sample is diluted in phosphate buffered saline (PBS) so that the count rate is approximately 200-400 kcts. The data is presented as a weighted average of the intensity measure.
Unless indicated otherwise, all particle size measurements referred to in Table 3 are the Z-average particle size of the fully formed nanoparticle, as measured by dynamic light scattering on a Malvern Zetasizer. The nanoparticle sample was diluted in phosphate buffered saline (PBS) so that the count rate is approximately 200-400 kcts.
as §1

A further data set relates to RSV F protein. The data set can be described thus: RSV immunogenicity: F-specific IgG titers after IM vaccination with liposome-formulated self-replicating RNA. Format: in vivo. Conditions: IM days 0 and 21, BALB/c mice, two weeks after two immunizations.
The nature of data set [3]: Measurement of mRNA encapsulation in lipid nanoparticles (Quant-iT Ribogreen). Format: physicochemical. Conditions: Leptin mRNA in LNP. On the procedure: All equipment and disposable supplies are certified free of RNase activity by the manufacturer or rendered RNase free by use of the RNaseZap reagent (LifeTechnologies). mRNA is encapsulated at a cationic lipid amine to mRNA phosphate (N:P) molar ratio of 4:1. Lipids (cationic lipid, DSPC, cholesterol and lipidated PEG or stealth lipid) are dissolved in ethanol. The molar ratios are 40:10:38:2, respectively. The mixture is sonicated briefly, then gently agitated for 5 minutes and then maintained at 37° C. until use. mRNA is exchanged into citrate buffer pH 5.8-6.0 by use of Amicon Ultra-15 centrifugal concentrators, and the final concentration is adjusted to 0.5 mg/ml and held at 37° C. until use. An equal volume of lipids in ethanol, mRNA in citrate buffer, and citrate buffer alone are drawn into disposable syringes.
Tubing leading from syringes containing lipids and mRNA are attached to the T junction, and tubing leading from the syringe containing citrate buffer alone is paired with the tubing exiting the T-junction over a collection vessel containing a stir bar on an active stir plate. Syringes are placed in a syringe pump set to expel contents at a flow rate of 1 ml per minute. The pump is activated, and the collected mRNA in lipid nanoparticles is transferred to SnakeSkin dialysis tubing (10,000 MWCO, Thermo Scientific). Material is dialyzed against RNAse- and pyrogen-free 1× phosphate buffered saline overnight at 4° C.
Percent encapsulation of mRNA in lipid nanoparticles is determined using the Quant-iT Ribogreen RNA Assay kit (Life Technologies). The LNP-mRNA suspension is assayed in buffer (mRNA outside the particle), and buffer plus Triton X-100 detergent (total mRNA). The difference calculated is the mRNA inside the particle. Prepare a 1000 ng/mL stock from the RNA provided in the kit and use this to generate a standard curve (0 ng/ml, 15.63-1000 ng/ml) in TE and TE+0.75% Triton X-100. Prepare LNP-mRNA samples in TE buffer and TE buffer+0.75% Triton X-100 with appropriate dilution so that reading is in the range of standard curve (400-2,000 fold). In a 384-well plate (Costar non-treated #3573) add 0.04 ml of standard (in duplicate) or sample (in triplicate) per well. Dilute Ribogreen reagent 240-fold in TE buffer and add 0.06 ml per well. Mix contents of wells and measure fluorescence (excitation=480 nm, emission=520 nm). Subtract background values (no RNA) from standard and test sample values and determine the concentrations of RNA in the samples using the standard curves. Determine the percent encapsulation of the sample by dividing the difference in concentrations between sample+triton and sample in buffer alone by the sample+triton concentration.

The nature of data set [4]: Percentage of encapsulated RNA and RNA concentration of replicon liposomes (Quant-iT RiboGreen). In kind it is physicochemical. Conditions: for %E (% entrapment) 1st IM / Conc (Concentration of RNA) 1st IM: RSV-F replicon RNA LNP prepared for 1st immunization; for %E (% entrapment) 2nd IM / Conc (Concentration of RNA) 2nd IM: RSV-F replicon RNA LNP prepared for 2nd immunization. The protocol:
RNA was encapsulated in liposomes made essentially by the method of Geall et al. (2012) PNAS vol. 109 (36): 14604-14609, Jeffs et al. (2005) Pharmaceutical Research 22 (3):362-372, and Maurer et al. (2001) Biophysical Journal, 80: 2310-2326 The liposomes were made of 10% DSPC (zwitterionic), 40% cationic lipid, 48% cholesterol and 2% PEG-conjugated DMG (2 kDa PEG). These proportions refer to the % moles in the total liposome.
Briefly, lipids were dissolved in ethanol (2 ml), a RNA replicon was dissolved in buffer (2 ml, 100 mM sodium citrate, pH 6) and these were mixed with 2 ml of buffer followed by 1 hour of equilibration. The mixture was then dialized overnight against 1×PBS. The resulting product contained liposomes, with ˜70-95% encapsulation efficiency. For in vitro and in vivo experiments formulations were diluted to the required RNA concentration with 1×PBS.
The percentage of encapsulated RNA and RNA concentration were determined by Quant-iT RiboGreen RNA reagent kit (Invitrogen), following manufacturer's instructions. The ribosomal RNA standard provided in the kit was used to generate a standard curve. Liposomes were diluted 10× or 100× in 1×TE buffer (from kit) before addition of the dye. Separately, liposomes were diluted 10× or 100× in 1×TE buffer containing 0.5% Triton X before addition of the dye (to disrupt the liposomes and thus to assay total RNA). Thereafter an equal amount of dye was added to each solution and then ˜180 μL of each solution after dye addition was loaded in duplicate into a 96 well tissue culture plate. The fluorescence (Ex 485 nm, Em 528 nm) was read on a microplate reader. All liposome formulations were dosed in vivo based on the encapsulated amount of RNA.
as §1

Each structure is given as a SMILES string.

Take `CCCCC/C=C\C/C=C\CCCCCCCC(=O)OCC(COC(=O)CCC(OCCCCCCCC)OCCCCCCCC)COC(=O)CCN(C)C` (stereo not shown) [Example 32, (9Z,12Z)-3-((4,4-bis(octyloxy)butanoyl)oxy)-2-(((3-(dimethylamino)propanoyl)oxy)methyl)propyl octadeca-9,12-dienoate]: in data set [1], the “PDI 1st IM” value was 0.147 and the “PDI 2nd IM” value is recorded as 0.088. Moreover, in data set [2], the “Size 1st IM” value is recorded as 136.2 nm and the “Size 2nd IM” value was 135 nm. Further, the “Immunogenicity (2wp2; log10 IgG titers)” value in the data set with RSV F protein (0.1 ng replicon RNA) was found to be 4.77 log10 IgG titers. Further, in the data set with RSV F protein (1 ng replicon RNA), the “Immunogenicity (2wp2; log10 IgG titers)” value is given as 4.92 log10 IgG titers. Moreover, the “% encapsulation mRNA Leptin” value in data set [3] is given as 97.1%. Also, in data set [4], the “%E (% entrapment) 1st IM” value is on record as 92.6%, the “Conc (Concentration of RNA) 1st IM” value came out at 8810 ng/mL, the “%E (% entrapment) 2nd IM” value was 94.72% and the “Conc (Concentration of RNA) 2nd IM” value worked out at 9653 ng/mL.

For the compound `CCCCC/C=C\C/C=C\CCCCCCCC(=O)OCC(COC(=O)CCC(OCCCCCCCC)OCCCCCCCC)COC(=O)C1CCN(CC2CC2)CC1` (stereo not shown) [Example 34, 3-((4,4-bis(octyloxy)butanoyl)oxy)-2-(((9Z,12Z)-octadeca-9,12-dienoyloxy)methyl)propyl 1-(cyclopropylmethyl)piperidine-4-carboxylate], in data set [1], the “PDI 1st IM” value is 0.116 and the “PDI 2nd IM” value came out at 0.11. Moreover, in data set [2], the “Size 1st IM” value was 136.2 nm and the “Size 2nd IM” value is 135.4 nm. For the same compound, the “Immunogenicity (2wp2; log10 IgG titers)” value in the data set with RSV F protein (0.1 ng replicon RNA) is recorded as 3.73 log10 IgG titers. For the same compound, in the data set on RSV F protein (1 ng replicon RNA), the “Immunogenicity (2wp2; log10 IgG titers)” value was determined as 4.36 log10 IgG titers. The “% encapsulation mRNA Leptin” value in data set [3] is listed as 97.1%. In addition, in data set [4], the “%E (% entrapment) 1st IM” value worked out at 75.5%, the “Conc (Concentration of RNA) 1st IM” value is 9240 ng/mL, the “%E (% entrapment) 2nd IM” value is reported as 79.19% and the “Conc (Concentration of RNA) 2nd IM” value came to 11495 ng/mL.

As for `CCCCC/C=C\C/C=C\CCCCCCCC(=O)OCC(COC(=O)CCC(OCCCCCCCC)OCCCCCCCC)COC(=O)C1CCN(C)C1` (stereo not shown) [Example 35, 3-((4,4-bis(octyloxy)butanoyl)oxy)-2-(((9Z,12Z)-octadeca-9,12-dienoyloxy)methyl)propyl 1-methylpyrrolidine-3-carboxylate], in data set [1], the “PDI 1st IM” value is 0.119 and the “PDI 2nd IM” value was 0.108. Besides, in data set [2], the “Size 1st IM” value was determined as 135.2 nm and the “Size 2nd IM” value came out at 137.5 nm. For the same compound, in the data set on RSV F protein (0.1 ng replicon RNA), the “Immunogenicity (2wp2; log10 IgG titers)” value is listed as 4.53 log10 IgG titers. Moreover, the “Immunogenicity (2wp2; log10 IgG titers)” value in the data set with RSV F protein (1 ng replicon RNA) was determined as 4.86 log10 IgG titers. Also, the “% encapsulation mRNA Leptin” value in data set [3] is on record as 97.3%. For the same compound, in data set [4], the “%E (% entrapment) 1st IM” value turned out to be 93.46%, the “Conc (Concentration of RNA) 1st IM” value stood at 10059 ng/mL, the “%E (% entrapment) 2nd IM” value is 93.9% and the “Conc (Concentration of RNA) 2nd IM” value amounted to 9937 ng/mL.

On to `CCCCC/C=C\C/C=C\CCCCCCCC(=O)OCC(COC(=O)CCC(OCCCCCCCC)OCCCCCCCC)COC(=O)C1(C)CCN(C)CC1` (stereo not shown) [Example 40, 3-((4,4-bis(octyloxy)butanoyl)oxy)-2-(((9Z,12Z)-octadeca-9,12-dienoyloxy)methyl)propyl 1,4-dimethylpiperidine-4-carboxylate], for which, in data set [1], the “PDI 1st IM” value is on record as 0.122 and the “PDI 2nd IM” value was found to be 0.118. For the same compound, in data set [2], the “Size 1st IM” value came out at 141 nm and the “Size 2nd IM” value worked out at 137.3 nm. For the same compound, in the data set on RSV F protein (0.1 ng replicon RNA), the “Immunogenicity (2wp2; log10 IgG titers)” value is given as 4.31 log10 IgG titers. In the data set on RSV F protein (1 ng replicon RNA), the “Immunogenicity (2wp2; log10 IgG titers)” value turned out to be 4.74 log10 IgG titers. The “% encapsulation mRNA Leptin” value in data set [3] amounted to 97.2%. Besides, in data set [4], the “%E (% entrapment) 1st IM” value is 71.1%, the “Conc (Concentration of RNA) 1st IM” value was 9461 ng/mL, the “%E (% entrapment) 2nd IM” value was found to be 78.05% and the “Conc (Concentration of RNA) 2nd IM” value was 9650 ng/mL.

On to `CCCCC/C=C\C/C=C\CCCCCCCC(=O)OCC(COC(=O)CCC(OCCCCCCCC)OCCCCCCCC)COC(=O)OC1CCN(C)CC1` (stereo not shown) [Example 48, (9Z,12Z)-3-((4,4-bis(octyloxy)butanoyl)oxy)-2-(((((1-methylpiperidin-4-yl)oxy)carbonyl)oxy)methyl)propyl octadeca-9,12-dienoate], for which, in data set [1], the “PDI 1st IM” value is reported as 0.091 and the “PDI 2nd IM” value came out at 0.075. For the same compound, in data set [2], the “Size 1st IM” value was 137.9 nm and the “Size 2nd IM” value stood at 134.2 nm. Further, the “Immunogenicity (2wp2; log10 IgG titers)” value with RSV F protein (0.1 ng replicon RNA) is on record as 4.58 log10 IgG titers. Moreover, the “Immunogenicity (2wp2; log10 IgG titers)” value with RSV F protein (1 ng replicon RNA) is on record as 5.02 log10 IgG titers. Moreover, the “% encapsulation mRNA Leptin” value in data set [3] is reported as 92.8%. For the same compound, in data set [4], the “%E (% entrapment) 1st IM” value is on record as 86.169%, the “Conc (Concentration of RNA) 1st IM” value stood at 9841 ng/mL, the “%E (% entrapment) 2nd IM” value is listed as 85.6% and the “Conc (Concentration of RNA) 2nd IM” value is 9665 ng/mL.
